The source of these data is patent publication US8378117B2 (priority 2005, dated 2013).

Read-outs that look alike come from different tables or passages of the source.

Test [1] deals with T1, CB1 receptor (Homo sapiens, UniProt P21554).
T1 construct: expressed in transfected cells
The experiment in a line: Binding assay for CB1 agonists or inverse agonists (SK-N-MC membranes, [3H]-CP-55,940). Particulars: for CB1 receptor binding average percent inhibition: value shown is an average percent inhibition (footnote 5), concentration not given; for inhibition at 0.25 µM: read-out: CB1 receptor binding percent inhibition, test concentration 0.25 μM (footnote 8); for inhibition at 1 µM: read-out: CB1 receptor binding percent inhibition, test concentration 1 μM (footnote 1). The procedure, abridged:
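Membranes from SK-N-MC cells stably expressing human CB1 incubated with compound and [3H]-CP-55,940 ([…]) for 90 min at 30° C in Tris-HCl pH 7.5, MgCl2, EDTA, fatty-acid-free BSA. Non-specific binding defined with 10 uM WIN 55,212; filtration, scintillation count; IC50 by linear regression.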

In test [2] the target is T2, CB2 receptor (Homo sapiens, UniProt P34972).
T2 construct: expressed in transfected cells
The experiment in a line: Binding assay for CB2 agonists or inverse agonists (SK-N-MC membranes, [3H]-CP-55,940). The conditions noted are these: for CB2 receptor binding percent inhibition: test concentration not stated; for IC50: Cannabinoid CB2 Receptor Binding IC50, calculated by linear regression from percent inhibition at various test concentrations; for inhibition at 0.25 µM: test concentration 0.25 μM (footnote 8). The procedure, abridged:
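Membranes from SK-N-MC cells stably expressing human CB2 were incubated with radioligand and test compounds for 90 min at 30 °C in Tris-HCl buffer, pH 7.5, with MgCl2, EDTA and fatty-acid-free BSA. Filter-bound radioactivity was counted; IC50 was derived by linear regression of percent inhibition.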

Where [3] appears, read: read-out: CB2 receptor binding percent inhibition.

T1 sequence (P21554 whole entry): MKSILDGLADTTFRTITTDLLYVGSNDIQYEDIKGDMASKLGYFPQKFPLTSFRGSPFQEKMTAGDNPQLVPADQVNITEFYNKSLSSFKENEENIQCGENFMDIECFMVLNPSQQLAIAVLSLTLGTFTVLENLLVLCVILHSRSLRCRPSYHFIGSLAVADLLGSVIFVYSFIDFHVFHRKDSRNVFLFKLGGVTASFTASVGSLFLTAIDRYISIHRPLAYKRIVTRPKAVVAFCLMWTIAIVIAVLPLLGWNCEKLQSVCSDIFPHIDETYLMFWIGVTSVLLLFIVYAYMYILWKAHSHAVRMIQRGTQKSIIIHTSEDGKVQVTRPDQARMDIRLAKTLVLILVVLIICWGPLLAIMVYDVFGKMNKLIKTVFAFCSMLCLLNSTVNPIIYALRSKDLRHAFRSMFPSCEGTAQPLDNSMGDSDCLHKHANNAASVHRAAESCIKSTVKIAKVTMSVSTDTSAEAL
T2 sequence (P34972 whole entry): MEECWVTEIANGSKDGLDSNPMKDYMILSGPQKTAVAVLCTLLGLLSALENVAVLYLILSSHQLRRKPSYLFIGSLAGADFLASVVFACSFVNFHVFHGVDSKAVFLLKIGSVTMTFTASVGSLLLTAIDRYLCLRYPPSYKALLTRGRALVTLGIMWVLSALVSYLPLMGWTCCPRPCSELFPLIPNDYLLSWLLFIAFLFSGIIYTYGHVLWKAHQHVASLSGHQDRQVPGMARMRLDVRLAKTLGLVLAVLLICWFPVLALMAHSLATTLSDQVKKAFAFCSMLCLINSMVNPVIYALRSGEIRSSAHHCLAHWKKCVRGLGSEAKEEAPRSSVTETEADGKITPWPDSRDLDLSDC

For the compound `O=C(NC1CCC1)c1nn(-c2ccc(Cl)cc2Cl)c2c1CCCCC2Cc1ccc(F)cc1` (stereo not shown) [Cpd 70, 1-(2,4-dichloro-phenyl)-8-(4-fluoro-benzyl)-1,4,5,6,7,8-hexahydro-cycloheptapyrazole-3-carboxylic acid cyclobutylamide], the “CB1 receptor binding average percent inhibition” value in test [1] is recorded as “^(5)37%”. The “CB2 receptor binding percent inhibition” value in test [2] came to 3%.
On the same counts, the results for `CC12CCC(C1)C(C)(C)[C@H]2NC(=O)c1nn(-c2ccc(Cl)cc2Cl)c2c1CCCCC2Cc1ccc(F)cc1` (stereo partly drawn) [Cpd 71, 1-(2,4-dichloro-phenyl)-8-(4-fluoro-benzyl)-1,4,5,6,7,8-hexahydro-cycloheptapyrazole-3-carboxylic acid [(2S)-1,3,3-trimethyl-bicyclo[2.2.1]hept-2-yl]-amide] are “^(5)43%” and 32%.
On the same counts, the results for `COC(=O)[C@H](Cc1ccc(F)cc1)NC(=O)c1nn(-c2ccc(Cl)cc2Cl)c2c1CCCCC2Cc1ccc(F)cc1` (stereo partly drawn) [Cpd 72, (2S)-2-{[1-(2,4-dichloro-phenyl)-8-(4-fluoro-benzyl)-1,4,5,6,7,8-hexahydro-cycloheptapyrazole-3-carbonyl]-amino}-3-(4-fluoro-phenyl)-propionic acid methyl ester] are “^(5)38%” and 10%.
Take `COC(=O)[C@H](Cc1ccc(F)cc1)NC(=O)c1nn(C2CCCCC2)c2c1CCCCC2Cc1cccc(F)c1` (stereo partly drawn) [Cpd 73, (2S)-2-{[1-cyclohexyl-8-(3-fluoro-benzyl)-1,4,5,6,7,8-hexahydro-cycloheptapyrazole-3-carbonyl]-amino}-3-(4-fluoro-phenyl)-propionic acid methyl ester]: the “CB1 receptor binding average percent inhibition” value in test [1] is reported as “^(5)24%”. The “CB2 receptor binding percent inhibition” value in test [2] is 8%.
For the compound `CCOC(=O)[C@H]1C2C=CC(C2)[C@H]1NC(=O)c1nn(C2CCCCC2)c2c1CCCCC2Cc1cccc(F)c1` (stereo partly drawn) [Cpd 74, (2S,3R)-3-{[1-cyclohexyl-8-(3-fluoro-benzyl)-1,4,5,6,7,8-hexahydro-cycloheptapyrazole-3-carbonyl]-amino}-bicyclo[2.2.1]hept-5-ene-2-carboxylic acid ethyl ester], the “CB1 receptor binding average percent inhibition” value in test [1] was “^(5)1%”. For the same compound, in test [2], the “CB2 receptor binding percent inhibition” value is on record as 10%.
On the same counts, the results for `C[C@H](NC(=O)c1nn(-c2ccc(Cl)cc2Cl)c2c1CCCCC2Cc1ccc(Cl)cc1)c1ccccc1` (stereo partly drawn) [Cpd 76, 8-(4-chloro-benzyl)-1-(2,4-dichloro-phenyl)-1,4,5,6,7,8-hexahydro-cycloheptapyrazole-3-carboxylic acid [(1S)-1-phenyl-ethyl]-amide] are “^(5)44%” and 38%.
The term IC50 denotes the midpoint of a concentration-inhibition curve. Take `COC(=O)[C@@H](Cc1ccc(O)cc1)NC(=O)c1nn(C2CCCCC2)c2c1CCCCC2Cc1cccc(F)c1` (stereo partly drawn) [Cpd 82, (2R)-2-{[1-cyclohexyl-8-(3-fluoro-benzyl)-1,4,5,6,7,8-hexahydro-cycloheptapyrazole-3-carbonyl]-amino}-3-(4-hydroxy-phenyl)-propionic acid methyl ester]: the IC50 is 1000 nM in test [1] (calculated by linear regression from percent inhibition at various test concentrations, read-out: Cannabinoid CB1 Receptor Binding IC50) and 60 nM in test [2]. Further, the “CB1 receptor binding average percent inhibition” value in test [1] amounted to 46%. Besides, the “CB2 receptor binding average percent inhibition” value in test [2] (value shown is an average percent inhibition (footnote 5), concentration not given) was determined as 88%.
`O=C(NCC(F)(F)F)c1nn(Cc2ccccc2)c2c1CCCCC2c1ccccc1` (stereo not shown) [Cpd 86, 1-benzyl-8-phenyl-1,4,5,6,7,8-hexahydro-cycloheptapyrazole-3-carboxylic acid (2,2,2-trifluoro-ethyl)-amide]: the inhibition at 0.25 µM in test [1] is 0%; in test [2] (setting [3]) it was 22%.
Regarding `COC(=O)[C@@H](Cc1ccc(F)cc1)NC(=O)c1nn(Cc2ccccc2)c2c1CCCCC2c1ccccc1` (stereo partly drawn) [Cpd 87, (2R)-2-[(1-benzyl-8-phenyl-1,4,5,6,7,8-hexahydro-cycloheptapyrazole-3-carbonyl)-amino]-3-(4-fluoro-phenyl)-propionic acid methyl ester], the values for the inhibition at 0.25 µM in test [1] and in test [2] (setting [3]) were 4% and 0%, respectively.
Consider `CCOC(=O)[C@H]1C2C=CC(C2)[C@H]1NC(=O)c1nn(C2CCCCC2)c2c1CCCCC2Cc1ccc(F)cc1` (stereo partly drawn) [Cpd 88, (2S,3R)-3-{[1-cyclohexyl-8-(4-fluoro-benzyl)-1,4,5,6,7,8-hexahydro-cycloheptapyrazole-3-carbonyl]-amino}-bicyclo[2.2.1]hept-5-ene-2-carboxylic acid ethyl ester], for which the inhibition at 1 µM in test [1] was found to be 2%. Moreover, in test [2], the “CB2 receptor binding percent inhibition” value worked out at 32%.
For the compound `O=C(NN1CCOCC1)c1nn(C2CCCCC2)c2c1CCCCC2Cc1ccc(F)cc1` (stereo not shown) [Cpd 89, 1-cyclohexyl-8-(4-fluoro-benzyl)-1,4,5,6,7,8-hexahydro-cycloheptapyrazole-3-carboxylic acid morpholin-4-ylamide], in test [1], the inhibition at 1 µM stood at 11%. The “CB2 receptor binding percent inhibition” value in test [2] is given as 0%.
For the compound `O=C(NN1CCOCC1)c1nn(C2CCCCC2)c2c1CCCCC2Cc1cccc(F)c1` (stereo not shown) [Cpd 90, 1-cyclohexyl-8-(3-fluoro-benzyl)-1,4,5,6,7,8-hexahydro-cycloheptapyrazole-3-carboxylic acid morpholin-4-ylamide], the inhibition at 1 µM in test [1] came out at 1%. Further, the “CB2 receptor binding percent inhibition” value in test [2] came out at 2%.
Turning to `COC(=O)[C@@H](Cc1ccc(O)cc1)NC(=O)c1nn(-c2ccc(F)cc2F)c2c1CCCCC2Cc1cccc(F)c1` (stereo partly drawn) [Cpd 95, (2R)-2-{[1-(2,4-difluoro-phenyl)-8-(3-fluoro-benzyl)-1,4,5,6,7,8-hexahydro-cycloheptapyrazole-3-carbonyl]-amino}-3-(4-hydroxy-phenyl)-propionic acid methyl ester], in test [1], the inhibition at 1 µM was 36%. In test [2], the “CB2 receptor binding percent inhibition” value was 35%.
Turning to `CC12CCC(C1)C(C)(C)[C@H]2NC(=O)c1nn(-c2ccc(F)cc2F)c2c1CCCCC2Cc1ccc(F)cc1` (stereo partly drawn) [Cpd 97, 1-(2,4-difluoro-phenyl)-8-(4-fluoro-benzyl)-1,4,5,6,7,8-hexahydro-cycloheptapyrazole-3-carboxylic acid [(2S)-1,3,3-trimethyl-bicyclo[2.2.1]hept-2-yl]-amide], the inhibition at 1 µM is 38% in test [1] and 71% in test [2] (read-out: CB2 receptor binding percent inhibition, test concentration 1 μM (footnote 1)). In addition, the IC50 in test [2] is 300 nM.
As to `COC(=O)[C@@H](Cc1ccc(O)cc1)NC(=O)c1nn(-c2ccc(F)cc2F)c2c1CCCCC2Cc1ccc(F)cc1` (stereo partly drawn) [Cpd 98, (2R)-2-{[1-(2,4-difluoro-phenyl)-8-(4-fluoro-benzyl)-1,4,5,6,7,8-hexahydro-cycloheptapyrazole-3-carbonyl]-amino}-3-(4-hydroxy-phenyl)-propionic acid methyl ester], the inhibition at 1 µM in test [1] is 51%. In addition, the “CB2 receptor binding percent inhibition” value in test [2] is recorded as 43%.
On to `O=C(N[C@@H]1c2ccccc2C[C@@H]1O)c1nn(-c2ccc(F)cc2F)c2c1CCCCC2Cc1cccc(F)c1` (stereo partly drawn) [Cpd 100, 1-(2,4-difluoro-phenyl)-8-(3-fluoro-benzyl)-1,4,5,6,7,8-hexahydro-cycloheptapyrazole-3-carboxylic acid [(1R,2S)-2-hydroxy-indan-1-yl]-amide], for which, in test [1], the inhibition at 1 µM was determined as 31%. Moreover, in test [2], the “CB2 receptor binding percent inhibition” value stood at 9%.
Regarding `C[C@H](NS(=O)(=O)/C=C/c1nn(C)c2c1CCCCC2Cc1ccc(F)cc1)c1ccccc1` (stereo partly drawn) [Cpd 101, (2E)-2-[8-(4-fluoro-benzyl)-1-methyl-1,4,5,6,7,8-hexahydro-cycloheptapyrazol-3-yl]-ethenesulfonic acid [(1S)-1-phenyl-ethyl]-amide], the inhibition at 1 µM in test [1] worked out at 28%; in test [2] (test concentration 1 μM (footnote 1), read-out: CB2 receptor binding percent inhibition), 97%. The IC50 in test [2] was 40 nM.
With `COC(=O)[C@@H](Cc1ccc(F)cc1)NC(=O)c1nn(-c2ccc(Cl)cc2Cl)c2c1CCCCC2Cc1cccc(Cl)c1` (stereo partly drawn) [Cpd 103, (2R)-2-{[8-(3-chloro-benzyl)-1-(2,4-dichloro-phenyl)-1,4,5,6,7,8-hexahydro-cycloheptapyrazole-3-carbonyl]-amino}-3-(4-fluoro-phenyl)-propionic acid methyl ester], in test [1] (Cannabinoid CB1 Receptor Binding IC50, calculated by linear regression from percent inhibition at various test concentrations), the concentration for half-maximal inhibition (IC50) was 300 nM. Also, the inhibition at 0.5 µM in test [1] (read-out: CB1 receptor binding percent inhibition, test concentration 0.5 μM (footnote 10)) turned out to be 56%. Also, the inhibition at 1 µM in test [1] worked out at 76%. The “CB2 receptor binding percent inhibition” value in test [2] is listed as 57%.
As for `CCOC(=O)[C@@H]1C2CCC(C2)[C@@H]1NC(=O)c1nn(C2CCCCC2)c2c1CCCCC2Cc1cccc(F)c1` (stereo partly drawn) [Cpd 105, (2R,3S)-3-{[1-cyclohexyl-8-(3-fluoro-benzyl)-1,4,5,6,7,8-hexahydro-cycloheptapyrazole-3-carbonyl]-amino}-bicyclo[2.2.1]heptane-2-carboxylic acid ethyl ester], the inhibition at 1 µM in test [1] is 2%. Also, the “CB2 receptor binding percent inhibition” value in test [2] was 82%.
On the same counts, the results for `CCOC(=O)[C@@H]1C2CCC(C2)[C@@H]1NC(=O)c1nn(C2CCCCC2)c2c1CCCCC2Cc1ccc(F)cc1` (stereo partly drawn) [Cpd 106, (2R,3S)-3-{[1-cyclohexyl-8-(4-fluoro-benzyl)-1,4,5,6,7,8-hexahydro-cycloheptapyrazole-3-carbonyl]-amino}-bicyclo[2.2.1]heptane-2-carboxylic acid ethyl ester] are 45% and 95%.
